Data as given in patent US20240270821A1, “GIP/GLP1/GCG TRI-RECEPTOR AGONISTS AND USES THEREOF” (priority 2023, published 2024).
Read-outs that look alike come from different tables or passages of the source. Marks after values point to notes of the source that are not given here. Starred links: 1 amine or outer side, 2 acyl side, 3 side chain; linkers in the order of their positions; H or OH if unused. Non-standard residues stand in square brackets, D forms with d. Groups on a side chain read outwards from the residue. *: point of attachment. C20 diacid = O=C(O)CCCCCCCCCCCCCCCCCCC(=O)*; C18 diacid = O=C(O)CCCCCCCCCCCCCCCCC(=O)*; αMePhe(2-F) = C[C@](N)(Cc1ccccc1F)C(=O)O; γGlu = O=C(O)[C@H](CCC(=O)[*:2])N[*:1]; αMeY = C[C@](N)(Cc1ccc(O)cc1)C(=O)O; 4Pal = N[C@@H](Cc1ccncc1)C(=O)O; αMeL = CC(C)C[C@](C)(N)C(=O)O; αMeS = C[C@](N)(CO)C(=O)O; Orn = NCCC[C@H](N)C(=O)O; AEEA = NCCOCCOCC(=O)O; Aib = CC(C)(N)C(=O)O

What was measured:
hGIPR [1] = target: T1, hGIPR (Homo sapiens, UniProt P48546); test: Functional cAMP activation in the presence of 0.1% casein (no HSA); format: cell-based; conditions: read-out: Relative cAMP EC50, hGIPR;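 further: intracellular cAMP rise after 30 min at 37 °C read by HTRF against a standard curve, scaled between buffer alone (0%) and top control ligand concentration (100%), four-parameter fit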
T1 sequence (P48546 22-466): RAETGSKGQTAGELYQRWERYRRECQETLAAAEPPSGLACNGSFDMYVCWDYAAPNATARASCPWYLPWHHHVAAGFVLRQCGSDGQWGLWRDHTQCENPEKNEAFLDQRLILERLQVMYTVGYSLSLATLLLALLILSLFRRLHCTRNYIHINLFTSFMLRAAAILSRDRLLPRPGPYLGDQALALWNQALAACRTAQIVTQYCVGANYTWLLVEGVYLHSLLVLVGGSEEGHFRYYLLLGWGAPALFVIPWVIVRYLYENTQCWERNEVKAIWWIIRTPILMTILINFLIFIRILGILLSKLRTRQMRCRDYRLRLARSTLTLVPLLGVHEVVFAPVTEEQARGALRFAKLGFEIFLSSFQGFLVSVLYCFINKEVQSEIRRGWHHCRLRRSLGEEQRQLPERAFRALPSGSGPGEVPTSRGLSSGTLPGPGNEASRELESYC

human GLP1-R = human GLP1-R (Homo sapiens, UniProt P43220); test: GLP1-R internalization assay in HEK293 cells; format: cell-based; conditions: for EC50: HEK293 cells expressing SNAP-GLP-1R, read-out: GLP1R Internalization EC50; for Internalization % TOP: normalized to maximum concentration of GLP-1 (100%)
hGcgR = hGcgR (Homo sapiens, UniProt P47871); test: Functional cAMP activation in the presence of 0.1% casein (no HSA); format: cell-based; conditions: read-out: Relative cAMP EC50, hGcgR;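 further: intracellular cAMP rise after 30 min at 37 °C, read by HTRF against a cAMP standard curve, scaled from buffer only (0%) to maximal control ligand response (100%)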
[2] = Body weight in diet-induced obese C57BL/6 mice; format: in vivo; conditions: percent of starting weight, DIO mice, mean ± SEM n=5
Description: To investigate the effect of the polypeptides as described herein on weight loss, exemplary polypeptides are dosed to C57BL/6 diet-induced obese (DIO) mice. Specifically, DIO male C57BL/6 mice (Taconic, Germantown, NY) maintained on a calorie-rich diet are used in the following studies. Mice are individually housed in a temperature-controlled (24° C.) facility with 12-hour light/dark cycle (lights on 22:00) and free access to food (TD95217) and water. After a minimum of 2 weeks acclimation to the facility, the mice are randomized according to their body weight, so each experimental group of animals would have similar starting body weight. The body weights range from 41 to 50 g. All groups contain 5 mice. […] Treatments are administered by subcutaneous (SC) injection (10 mL/kg) to ad libitum fed DIO mice 30 to 90 minutes prior to the onset of the dark cycle either once daily (QD) or once every 3 days (Q3D) for 9-16 days. Body weight and food intake are measured daily throughout the study. Body weight is presented as percent of the starting weight. […] Data are presented as mean±SEM of 5 animals per group in Table 7 below. Statistical analysis is performed using repeated measures ANOVA, followed by Dunnett's method comparison test.

hGLP-1R [3] = target: T2, hGLP-1R (Homo sapiens, UniProt P43220); test: Functional cAMP activation in the presence of 0.1% casein (no HSA); format: cell-based; conditions: read-out: Relative cAMP EC50, hGLP-1R;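 further: intracellular cAMP rise after 30 min at 37 °C read by HTRF, normalized between buffer only (0%) and maximal control ligand (100%), four-parameter variable-slope fit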
Target sequence in this assay (P43220 24-463): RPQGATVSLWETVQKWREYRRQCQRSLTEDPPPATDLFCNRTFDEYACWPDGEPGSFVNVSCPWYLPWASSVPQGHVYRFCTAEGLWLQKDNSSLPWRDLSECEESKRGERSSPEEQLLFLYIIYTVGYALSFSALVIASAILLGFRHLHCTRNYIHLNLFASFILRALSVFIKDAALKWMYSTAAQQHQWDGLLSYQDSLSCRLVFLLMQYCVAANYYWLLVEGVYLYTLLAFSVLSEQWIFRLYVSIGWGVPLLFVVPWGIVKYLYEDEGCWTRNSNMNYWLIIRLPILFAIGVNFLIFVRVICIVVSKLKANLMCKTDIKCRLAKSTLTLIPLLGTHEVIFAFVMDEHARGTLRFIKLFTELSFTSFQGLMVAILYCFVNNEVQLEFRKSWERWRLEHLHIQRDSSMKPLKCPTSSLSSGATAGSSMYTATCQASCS

hGIPR [4] = target: T1, hGIPR; test: Functional cAMP activity in the presence of 1% HSA; format: cell-based; conditions: read-out: cAMP Rel EC50, hGIPR
human GcgR = human GcgR (Homo sapiens, UniProt P47871); test: Functional cAMP activity in the presence of 1% HSA; format: cell-based; conditions: read-out: cAMP Rel EC50, hGcgR
hGLP-1R [5] = target: T2, hGLP-1R; test: Functional cAMP activity in the presence of 1% HSA; format: cell-based; conditions: read-out: cAMP Rel EC50, hGLP-1R
Target sequence in this assay (P43220 24-463): as above

hGLP-1R [6] = target: T2, hGLP-1R; test: GLP-1R CHO cell β-arrestin recruitment assay; format: cell-based; parameters: host or cells: CHO-K1 (PathHunter, assay-ready frozen cells);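 further: luminescence read after 90 min peptide exposure at 37 °C and a further 60 min with detection reagent at room temperature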
Target sequence in this assay (P43220 24-463): as above
Target sequence in this assay (P32121 whole entry partner): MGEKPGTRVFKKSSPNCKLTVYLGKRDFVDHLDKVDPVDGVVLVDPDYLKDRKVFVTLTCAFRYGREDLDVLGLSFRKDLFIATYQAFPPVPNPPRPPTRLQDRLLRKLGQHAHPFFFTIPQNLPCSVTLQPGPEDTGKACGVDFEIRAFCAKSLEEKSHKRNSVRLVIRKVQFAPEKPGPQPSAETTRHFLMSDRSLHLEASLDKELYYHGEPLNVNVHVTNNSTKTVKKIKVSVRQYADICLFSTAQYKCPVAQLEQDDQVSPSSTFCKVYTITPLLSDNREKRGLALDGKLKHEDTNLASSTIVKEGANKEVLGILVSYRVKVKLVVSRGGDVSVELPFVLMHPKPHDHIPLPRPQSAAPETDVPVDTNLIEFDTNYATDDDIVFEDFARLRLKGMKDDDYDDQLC

[7] = in the presence of 0.1% casein (no HSA), geometric mean

Chain of human GLP1-R (P43220 24-463): as the sequence (P43220 24-463) above
Chain of human GcgR (P47871 26-477): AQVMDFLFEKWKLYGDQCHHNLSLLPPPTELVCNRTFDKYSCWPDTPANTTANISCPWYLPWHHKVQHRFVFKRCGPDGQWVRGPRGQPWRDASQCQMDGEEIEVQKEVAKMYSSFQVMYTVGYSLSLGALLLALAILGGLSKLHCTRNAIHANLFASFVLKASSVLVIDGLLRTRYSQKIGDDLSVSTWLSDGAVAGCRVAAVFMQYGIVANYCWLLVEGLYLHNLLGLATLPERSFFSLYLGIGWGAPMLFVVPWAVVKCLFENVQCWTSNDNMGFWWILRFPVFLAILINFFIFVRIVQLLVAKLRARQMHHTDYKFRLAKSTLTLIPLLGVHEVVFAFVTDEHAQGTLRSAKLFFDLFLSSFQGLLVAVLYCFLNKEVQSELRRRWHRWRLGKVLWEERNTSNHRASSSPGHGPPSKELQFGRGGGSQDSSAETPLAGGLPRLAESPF
Chain of hGcgR (P47871 26-477): as above

Substance	EC50 (hGIPR [1]; [7]) [nM]	EC50 (human GLP1-R) [nM]	Internalization % TOP (human GLP1-R) [%]	EC50 (hGcgR; [7]) [nM]	Body weight (%) ([2]; 10 nmol/kg SC Q3D, 14 days)	EC50 (hGLP-1R [3]; [7]) [nM]	EC50 (hGIPR [4]) [nM]	EC50 (human GcgR) [nM]	EC50 (hGLP-1R [5]) [nM]	EC50 (hGLP-1R [6]; CHO-K1 PathHunter, β-arrestin-2, 0.1% casein, read-out: hGLP1R β-arrestin Rel EC50) [nM]	% Stimulation Max (hGLP-1R [6]; normalized to GLP-1(7-36) as maximum control) [%]	EC50 (hGIPR [1]) [nM]	EC50 (hGcgR) [nM]	Body weight (%) ([2]; 10 nmol/kg SC QD, 9 days)	EC50 (hGLP-1R [3]) [nM]
H-Y[Aib]QGTFTSDFS[Orn][αMeL]LDKK([AEEA-AEEA-γGlu-C18 diacid])AQ[Aib]AFIEYLLE[Aib]GPSSGAPPPSGS-NH2 [Example 75]	0.0578	61.8	51.9	4.51	96.28 +/− 1.51%	4.4	16.8	1040	878	–	–	–	–	–	–
H-Y[Aib]QGTFTSDFS[Orn][αMeL]LDKK([AEEA-γGlu-C18 diacid])AQ[Aib]AFIEWLLEGGESSGAPPPEGS-NH2 [Example 125]	0.503	86.4	42.6	3.97	97.90 +/− 0.32%	4.12	67.8	901	1050	–	–	–	–	–	–
H-Y[Aib]QGTFTSDFS[Orn][αMeL]LDKK([AEEA-γGlu-C18 diacid])AQ[Aib]AFIEWLLEGGHSSGAPPPEGS-NH2 [Example 126]	0.264	63.2	38.8	6.81	95.68 +/− 0.90%	3.97	40.3	1120	838	–	–	–	–	–	–
H-Y[Aib]QGTFTSDFS[Orn][αMeL]LDKK([AEEA-γGlu-C18 diacid])AQ[Aib]AFIEYLLAGGPSSGAPPPEGS-NH2 [Example 93]	0.162	30.4	50.8	7.16	86.64 +/− 1.94**** %	2.63	27.9	1390	397	–	–	–	–	–	–
H-Y[Aib]QGTFTSDYSI[αMeL]LDKIAAK([AEEA-AEEA-γGlu-C20 diacid])QFVQWLIE[Aib]GPSSGEPPPSEG-NH2 [Example 323]	0.232	28.2	84.8	6.04	–	1.56	37.7	1440	293	10.8	44	–	–	–	–
H-Y[Aib]QGT[αMePhe(2-F)]TSDYSKLLDKIAQK([AEEA-γGlu-C20 diacid])AFIEYLIEGGPSSGAPPPSEG-NH2 [Example 339]	0.101	–	–	6.81	82.36 +/− 3.01**** %	1.06	28.8	1510	192	–	–	–	–	–	–
H-Y[Aib]QGT[αMePhe(2-F)]TSD[4Pal][αMeS]I[αMeL]LD[Orn]K([AEEA-AEEA-γGlu-C18 diacid])AQ[Aib][Orn]FI[dE][αMeY]LIEGGPSSGEPPPSEG-NH2 [Example 490]	–	–	–	–	–	–	0.861	262	9.8	–	–	0.0159	3.05	80.75 ± 3.23	0.183
